In ChEMBL document CHEMBL1201862, “PubChem BioAssay data set” (2004):
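Method: 48-hour compound exposure of cells in 96-well plates, five concentrations, linear interpolation of endpoints. GI50: concentration for 50% inhibition of growth.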 Activity calls are given as the source filed them. Cut-off read from the data, not from the text of the source: active = GI50 up to about 1.1 µM and inactive = higher.

How the values were obtained:
Test in all cases: NCI-60 cell line screen, 48 h
HCT-15 = system: HCT-15
OVCAR-4 = system: OVCAR-4
COLO 205 = system: COLO 205
TK-10 = system: TK-10
T47D = system: T47D
DU-145 = system: DU-145
PC-3 = system: PC-3
NCI/ADR-RES = system: NCI/ADR-RES
Hs-578T = system: Hs-578T
A498 = system: A498
SNB-19 = system: SNB-19
SK-MEL-28 = system: SK-MEL-28
MCF7 = system: MCF7
786-0 = system: 786-0
SK-OV-3 = system: SK-OV-3
MDA-N = system: MDA-N
SF-268 = system: SF-268
RPMI-8226 = system: RPMI-8226
LOX IMVI = system: LOX IMVI
UO-31 = system: UO-31

Row | Structure (SMILES) | GI50 (HCT-15) [µM] | GI50 (OVCAR-4) | GI50 (COLO 205) | GI50 (TK-10) | GI50 (T47D) | GI50 (DU-145) | GI50 (PC-3) | GI50 (NCI/ADR-RES) | GI50 (Hs-578T) | GI50 (A498) | GI50 (SNB-19) | GI50 (SK-MEL-28) | GI50 (MCF7) | GI50 (786-0) | GI50 (SK-OV-3) | GI50 (MDA-N) | GI50 (SF-268) | GI50 (RPMI-8226) | GI50 (LOX IMVI) | GI50 (UO-31)
1 | OC12CC3c4ccccc4NC3C3Oc4cccc5c4C31CCN(CC1CC1)C2C5 (stereo not given) | 17.9 | 20.7 µM (inactive) | 20.9 µM (inactive) | 17.3 µM (inactive) | 18.9 µM (inactive) | 17.1 µM (inactive) | 16.7 µM (inactive) | 21.2 µM (inactive) | 23.9 µM (inactive) | 17.9 µM (inactive) | 18.2 µM (inactive) | 13.8 µM (inactive) | 17.8 µM (inactive) | 16.7 µM (inactive) | 18.7 µM (inactive) | 17.9 µM (inactive) | 18.2 µM (inactive) | 18.4 µM (inactive) | 15.9 µM (inactive) | 15.8 µM (inactive)
2 | CCOP(=O)(OCC)/C(C#N)=C/c1c[nH]c2ccccc12 | > 100 | > 100 µM (inactive) | > 100 µM (inactive) | > 100 µM (inactive) | > 100 µM (inactive) | > 100 µM (inactive) | > 100 µM (inactive) | 53 µM (inactive) | > 100 µM (inactive) | > 100 µM (inactive) | > 100 µM (inactive) | > 100 µM (inactive) | > 100 µM (inactive) | > 100 µM (inactive) | > 100 µM (inactive) | > 100 µM (inactive) | > 100 µM (inactive) | 90.4 µM (inactive) | > 100 µM (inactive) | 45.8 µM (inactive)
3 | Cc1ccc(NC2=NCCO2)c2c1CCC2 | 44.2 | 48.9 µM (inactive) | 23.6 µM (inactive) | > 100 µM (inactive) | 51.3 µM (inactive) | 63.2 µM (inactive) | 25.4 µM (inactive) | 20.4 µM (inactive) | 22.9 µM (inactive) | 41.6 µM (inactive) | 58.9 µM (inactive) | 32.8 µM (inactive) | 31.8 µM (inactive) | 56 µM (inactive) | 41.5 µM (inactive) | 17.6 µM (inactive) | 41.8 µM (inactive) | 34.8 µM (inactive) | 22.8 µM (inactive) | > 100 µM (inactive)
4 | COC(=O)C1=CS/C(=C2\S[C@@H]3[C@H](S2)[C@H]2C=C[C@@H]3C2)S1 | 17.3 | > 100 µM (inactive) | 32.8 µM (inactive) | > 100 µM (inactive) | > 100 µM (inactive) | > 100 µM (inactive) | 51.6 µM (inactive) | 9.66 µM (inactive) | 81.3 µM (inactive) | 4.52 µM (inactive) | 77.1 µM (inactive) | 62.7 µM (inactive) | 10.9 µM (inactive) | 92 µM (inactive) | 47 µM (inactive) | 3.49 µM (inactive) | 38.7 µM (inactive) | 30.7 µM (inactive) | 13.1 µM (inactive) | 46.1 µM (inactive)
5 | CC1OC(OC2C(CO)OC(O[C@H]3CC[C@@]4(C)C(=CC[C@H]5[C@@H]6C[C@@H]7O[C@](O)(CC[C@H](C)COC8OC(CO)C(O)C(O)C8O)[C@@H](C)[C@@H]7[C@@]6(C)CC[C@@H]54)C3)C(OC3OC(C)C(O)C(O)C3O)C2O)C(O)C(O)C1O (stereo not given in full) | 2.75 | 7.96 µM (inactive) | 5.01 µM (inactive) | > 73.3 µM (inactive) | 3.51 µM (inactive) | 2.35 µM (inactive) | 4.48 µM (inactive) | 4.4 µM (inactive) | 2.63 µM (inactive) | 26.7 µM (inactive) | 2.8 µM (inactive) | 2.94 µM (inactive) | 7.8 µM (inactive) | 2.52 µM (inactive) | 2.91 µM (inactive) | 3.4 µM (inactive) | 3.36 µM (inactive) | 6.25 µM (inactive) | 2.17 µM (inactive) | 3.63 µM (inactive)
6 | C=CCCCCOC1C=CC(OC(C)=O)C(COC(C)=O)O1 (stereo not given) | > 100 | > 100 µM (inactive) | > 100 µM (inactive) | > 100 µM (inactive) | > 100 µM (inactive) | > 100 µM (inactive) | > 100 µM (inactive) | > 100 µM (inactive) | 0.324 µM (active) | > 100 µM (inactive) | > 100 µM (inactive) | > 100 µM (inactive) | > 100 µM (inactive) | > 100 µM (inactive) | > 100 µM (inactive) | > 100 µM (inactive) | > 100 µM (inactive) | > 100 µM (inactive) | > 100 µM (inactive) | > 100 µM (inactive)
7 | O=C(NCCCCl)c1c(O)c2ccccc2[nH]c1=O | > 100 | > 100 µM (inactive) | > 100 µM (inactive) | > 100 µM (inactive) | > 73.3 µM (inactive) | > 100 µM (inactive) | > 100 µM (inactive) | > 71 µM (inactive) | > 56.8 µM (inactive) | 32.4 µM (inactive) | > 100 µM (inactive) | > 100 µM (inactive) | > 91.8 µM (inactive) | > 61 µM (inactive) | > 80.5 µM (inactive) | > 100 µM (inactive) | > 72.1 µM (inactive) | > 100 µM (inactive) | > 100 µM (inactive) | > 100 µM (inactive)
8 | Nc1[nH]c(=S)[nH]c(=O)c1/N=N/c1c(Br)cc(S(N)(=O)=O)cc1Br | > 100 | > 100 µM (inactive) | > 100 µM (inactive) | > 100 µM (inactive) | > 100 µM (inactive) | > 100 µM (inactive) | > 100 µM (inactive) | > 100 µM (inactive) | > 100 µM (inactive) | > 100 µM (inactive) | > 100 µM (inactive) | > 100 µM (inactive) | > 100 µM (inactive) | > 100 µM (inactive) | > 100 µM (inactive) | > 100 µM (inactive) | > 100 µM (inactive) | > 100 µM (inactive) | > 100 µM (inactive) | > 100 µM (inactive)
9 | Cc1nnc(N)nc1/C=C/c1c(O)ccc2ccccc12 | 17.3 | 20 µM (inactive) | 44.4 µM (inactive) | 54.8 µM (inactive) | 36.7 µM (inactive) | 52.8 µM (inactive) | 22.8 µM (inactive) | 30.8 µM (inactive) | 26.2 µM (inactive) | 21.3 µM (inactive) | 27 µM (inactive) | 29.7 µM (inactive) | 32.8 µM (inactive) | 32.4 µM (inactive) | 27.5 µM (inactive) | 28.9 µM (inactive) | 28.7 µM (inactive) | 30.5 µM (inactive) | 34.3 µM (inactive) | 18.8 µM (inactive)
10 | O=C1/C(=C\c2ccc([N+](=O)[O-])cc2)CS(=O)(=O)C/C1=C/c1ccc([N+](=O)[O-])cc1 | 0.117 | 0.342 µM (active) | 0.188 µM (active) | 0.787 µM (active) | 0.962 µM (active) | 2.92 µM (inactive) | 0.392 µM (active) | 0.161 µM (active) | 1.35 µM (inactive) | 1.79 µM (inactive) | 3.24 µM (inactive) | 1.13 µM (inactive) | 0.303 µM (active) | 0.149 µM (active) | 4.8 µM (inactive) | 0.35 µM (active) | 0.773 µM (active) | 0.0942 µM (active) | 0.597 µM (active) | 0.176 µM (active)
11 | COc1ccc2[nH]c3c(C)c4ccnc(NCCCN(C)CCCNC(=O)NCCCN(C)CCCNc5nccc6c(C)c7[nH]c8ccc(OC)cc8c7c(C)c56)c4c(C)c3c2c1 | 1.26 | 0.596 µM (active) | 0.324 µM (active) | 1.48 µM (inactive) | 0.69 µM (active) | 1.19 µM (inactive) | 0.92 µM (active) | 2.14 µM (inactive) | 0.977 µM (active) | 1.39 µM (inactive) | 0.264 µM (active) | 1.48 µM (inactive) | 0.164 µM (active) | 0.233 µM (active) | 1.67 µM (inactive) | 0.748 µM (active) | 0.551 µM (active) | 0.564 µM (active) | 0.855 µM (active) | 0.881 µM (active)
12 | CN(NC(=O)CCCl)C1=NCCCCN1 | > 100 | > 100 µM (inactive) | > 100 µM (inactive) | > 100 µM (inactive) | > 100 µM (inactive) | > 100 µM (inactive) | > 100 µM (inactive) | > 100 µM (inactive) | > 100 µM (inactive) | > 100 µM (inactive) | > 100 µM (inactive) | > 100 µM (inactive) | > 100 µM (inactive) | > 100 µM (inactive) | > 100 µM (inactive) | > 100 µM (inactive) | > 100 µM (inactive) | > 100 µM (inactive) | > 100 µM (inactive) | > 100 µM (inactive)
